Each molecule was assayed on CtELO6 (assay: Elongation of fatty acid by elongase CtELO6 studied in yeast, Saccharomyces cerevisiae). Details: not given.
Type: cell-based, Conidiobolus thromboides
Source text: Accordingly, it is expected that the production of 20:2:11,14 by CtELO6 in plants may provide increased substrate for EhELO1, providing enhanced production of DDA in plants expressing both CtELO6 and EhELO1.

Row | Compound | elongation efficiency
1 | CCCCC/C=C\C/C=C\CCCCCCCC(=O)O [18:2-9, 12, linoleic acid] | more than 20%

The molecules below were run on EhELO1 (assay: Elongation efficiency on fatty acid substrates by EhELO1 expressed in Saccharomyces cerevisiae (in vivo activity assay)). Details: yeast INVSc1 transformant with EhELO1/pHVX2; 0.25 mM free fatty acid substrate with tergitol, 20° C. for 2 days; calculated from peak area of FAMEs; means of four replicates with standard deviation.
Type: cell-based, Eranthis hyemalis
Method: To define the diverse activity of the discovered elongase (EhELO1) from winter aconite, a variety of possible common fatty acids and unusual fatty acids that differ in the number and position of double bonds as well as in the chain length was exogenously supplied to the yeast transformant expressing the elongase EhELO1 for in vivo activity assays. The conversion of substrates to products was measured and used for the comparison of elongation efficiencies among fatty acid substrates.
The EhELO1 coding sequence was released from plasmid, EhELO1/pYES2.1 and sub-cloned into another yeast expression vector pHVX2 under the control of phosphoglycerate kinase 1 constitutive promoter, giving a plasmid EhELO1/pHVX2. The recombinant plasmid was transformed into Saccharomyces cerevisiae INVSc1. The yeast transformants with either EhELO1 or empty vector pHVX2 were grown at 30° C. for 1 day. The overnight cultures were diluted to an OD600 of 0.1 in the same medium supplemented with or without 0.25 mM of various free fatty acids in the presence of tergitol. After incubation at 20° C. for 2 days, yeast cells were harvested and washed once with tergitol and once with water. Total fatty acids in yeast transformants were converted to FAMES by an acid transmethylation process and analyzed by gas chromatography.

Row | Compound | Elongation efficiency (%)
2 | CCCCC/C=C\C/C=C\C/C=C\CCCCCCC(=O)O [20:3-8, 11, 14] | 46.4 ± 1.44
3 | CC/C=C\C/C=C\C/C=C\C/C=C\C/C=C\CCCC(=O)O [20:5-5,8, 11, 14, 17, eicosapentaenoic acid] | 39.8 ± 0.43
4 | CCCCC/C=C\C/C=C\C/C=C\C/C=C\CCCC(=O)O [20:4-5,8, 11, 14, arachidonic acid] | 36.2 ± 0.92
5 | CC/C=C\C/C=C\C/C=C\C/C=C\CCCCC(=O)O [18:4-6,9, 12, 15] | 25.0 ± 0.37
6 | CC/C=C\C/C=C\C/C=C\C/C=C\CCCCCCC(=O)O [20:4-8, 11, 14, 17] | 50.3 ± 0.53
7 | CCCCCC/C=C\CCCCCCCCCC(=O)O [18:1-11] | 49.4 ± 1.79
8 | CCCCC/C=C\C/C=C\C/C=C\C/C=C\CCCCCC(=O)O [22:4-7, 10, 13, 16] | 20.5 ± 0.37
9 | CCCCC/C=C\C/C=C\CCCCCCCCCC(=O)O [20:2-11, 14, eicosadienoic acid] | 48.5 ± 2.12
10 | CCCCCCCCC=CCCCCCCCCCC(=O)O [20:1-11] | 12.6 ± 0.23
11 | CC/C=C\C/C=C\C/C=C\C/C=C\C/C=C\CCCCCC(=O)O [22:5-7, 10, 13, 16, 19] | 31.9 ± 0.19
12 | CCCCCCCC/C=C\CCCCCCCC(=O)O [18:1-9] | 3.3 ± 0.07
13 | CC/C=C\C/C=C\C/C=C\CCCCCCCCCCCC(=O)O [22:3-13, 16, 19, docosatrienoic acid] | 9.7 ± 0.13
14 | CC/C=C\C/C=C\C/C=C\CCCCCCCCCC(=O)O [20:3-11, 14, 17] | 61.8 ± 0.35
15 | CCCCC/C=C\C/C=C\CCCCCCCCCCCC(=O)O [22:2-13, 16, docosadienoic acid] | 3.4 ± 0.17
16 | CCCCCCCC/C=C\CCCCCCCCCCCC(=O)O [22:1-13] | 0.0 ± 0.0
17 | CCCCC/C=C\C/C=C\C/C=C\CCCCC(=O)O [18:3-6,9, 12, γ-linolenic acid] | 28.3 ± 1.95
18 | CCCCC/C=C\C/C=C\CCCCCCCC(=O)O [18:2-9, 12, linoleic acid] | 44.6 ± 3.26
19 | CC/C=C\C/C=C\C/C=C\C/C=C\C/C=C\C/C=C\CCC(=O)O [22:6-4,7, 10, 13, 16, 19, docosahexaenoic acid] | 10.8 ± 0.52
20 | CCC=CCC=CCC=CCC=CCCCCCCCCC(=O)O [22:4-10, 13, 16, 19] | 32.7 ± 0.49
21 | CC/C=C\C/C=C\C/C=C\CCCCCCCC(=O)O [18:3-9, 12, 15, linolenic acid] | 54.7 ± 0.83

Same assay, conditions: yeast transformant expressing EhELO1, comparison among supplied substrates

Row | Compound | Substrate preference of EhELO1 (in words)
22 | CCCCCC/C=C\CCCCCCCCCC(=O)O [18:1-11] | highly active
23 | CC/C=C\C/C=C\C/C=C\CCCCCCCCCC(=O)O [20:3-11, 14, 17] | most preferred

Reference: patent publication US10920238B2, “Winter aconite fatty acid elongase and uses thereof in the production of fatty acids” (National Research Council of Canada, priority 2016, dated 2021)
